Assay results taken from the supplement of paper PMC10627819.

Experiments:
S. aureus Newman = test: Bliss interaction score (quartile over a dose matrix) (fitness difference); higher = more antagonism (negative = synergy)
Procedure, shortened: (§1)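 Fitness was OD595 at entry into stationary phase divided by the plate's robust no-drug mean and capped at 1; single-drug fitness was inferred from combination data. The Bliss score is observed minus expected (product) fitness, summarised by quartiles over technical, biological and donor/recipient replicates.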

S. aureus DSM 20231 [1] = test: as above
Procedure, shortened: as §1

S. pneumoniae D39V [2] = test: as above
Procedure, shortened: as §1

B. subtilis 168 [3] = test: as above
Procedure, shortened: as §1

S. pneumoniae D39V [4] = test: fitness (endpoint OD595 vs no drug) (fraction); higher = more growth
Procedure, shortened: (§2)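 With the first reading as background, OD595 was measured every 30 min for 14 h in 384-well plates kept at 37 °C and inoculated at OD595 0.01. TSB, LB Lennox or CY was the medium. Fitness is the optical density at the transition into stationary phase divided by the robust mean of no-drug control wells, with a cap of 1.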

B. subtilis 168 [5] = test: as above
Procedure, shortened: as §2

S. aureus DSM 20231 [6] = test: as above
Procedure, shortened: as §2
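For Bliss interaction score (quartile over a dose matrix) in this document: first quartile when negative (synergy) and third quartile when positive (antagonism).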

CN(C)C(=O)C(CCN1CCC(O)(c2ccc(Cl)cc2)CC1)(c1ccccc1)c1ccccc1 [Loperamide] + Cc1cc(NS(=O)(=O)c2ccc(N)cc2)no1 [Sulfamethoxazol]
Conditions | Bliss interaction score
B. subtilis 168 [3] | -0.178
S. aureus DSM 20231 [1] | -0.143
S. aureus Newman | 0.0631
S. pneumoniae D39V [2] | 0.0594

fitness
Conditions | partner 1 µg/mL | partner 2 µg/mL | partner 4 µg/mL
B. subtilis 168 [5], first compound 25 µg/mL | – | – | 0.857
B. subtilis 168 [5], first compound 100 µg/mL | – | 0.0238 | 0.156
S. pneumoniae D39V [4], first compound 17.14 µg/mL | 0.92 | 0.936 | 0.989
S. pneumoniae D39V [4], first compound 34.28 µg/mL | 0.953 | 0.95 | 0.998

fitness, one replicate
Conditions | first compound 20 µg/mL | first compound 25 µg/mL | first compound 40 µg/mL | first compound 50 µg/mL | first compound 68.57 µg/mL | first compound 80 µg/mL | first compound 100 µg/mL
B. subtilis 168 [5], partner 0.5 µg/mL | – | 0.0806 | – | 0.009 | – | – | 0.0009
S. pneumoniae D39V [4], partner 1 µg/mL | ≥ 1 | – | ≥ 1 | – | 0.967 | 0.249 | –
S. pneumoniae D39V [4], partner 2 µg/mL | ≥ 1 | – | ≥ 1 | – | 0.968 | 0.89 | –
S. pneumoniae D39V [4], partner 4 µg/mL | 0.941 | – | 0.942 | – | ≥ 1 | 0.752 | –

CN(C)C(=O)C(CCN1CCC(O)(c2ccc(Cl)cc2)CC1)(c1ccccc1)c1ccccc1 [Loperamide] + Cc1ncc([N+](=O)[O-])n1CCO [Metronidazole]
Conditions | Bliss interaction score
B. subtilis 168 [3] | 0.268
S. aureus DSM 20231 [1] | 0.0627
S. aureus Newman | 0.064
S. pneumoniae D39V [2] | 0.0877

Conditions | fitness
B. subtilis 168 [5], first compound 25 µg/mL, partner 0.625 µg/mL | 0.918
B. subtilis 168 [5], first compound 25 µg/mL, partner 1.25 µg/mL | 0.891
B. subtilis 168 [5], first compound 25 µg/mL, partner 2.5 µg/mL | 0.895
B. subtilis 168 [5], first compound 100 µg/mL, partner 1.25 µg/mL | 0.214
B. subtilis 168 [5], first compound 100 µg/mL, partner 2.5 µg/mL | 0.203
S. pneumoniae D39V [4], first compound 17.14 µg/mL, partner 1.25 µg/mL | 0.983
S. pneumoniae D39V [4], first compound 17.14 µg/mL, partner 2.5 µg/mL | ≥ 1
S. pneumoniae D39V [4], first compound 17.14 µg/mL, partner 5 µg/mL | 0.99
S. pneumoniae D39V [4], first compound 20 µg/mL, partner 1.073 µg/mL | ≥ 1
S. pneumoniae D39V [4], first compound 20 µg/mL, partner 2.145 µg/mL | 0.921
S. pneumoniae D39V [4], first compound 20 µg/mL, partner 4.29 µg/mL | 0.973
S. pneumoniae D39V [4], first compound 34.28 µg/mL, partner 1.25 µg/mL | 0.99
S. pneumoniae D39V [4], first compound 34.28 µg/mL, partner 2.5 µg/mL | ≥ 1
S. pneumoniae D39V [4], first compound 34.28 µg/mL, partner 5 µg/mL | 0.979
S. pneumoniae D39V [4], first compound 40 µg/mL, partner 1.073 µg/mL | ≥ 1
S. pneumoniae D39V [4], first compound 40 µg/mL, partner 4.29 µg/mL | 0.96
S. pneumoniae D39V [4], first compound 80 µg/mL, partner 1.073 µg/mL | 0.938
S. pneumoniae D39V [4], first compound 80 µg/mL, partner 2.145 µg/mL | 0.898
S. pneumoniae D39V [4], first compound 80 µg/mL, partner 4.29 µg/mL | 0.95

S. pneumoniae D39V [4], first compound 68.57 µg/mL, one replicate
Conditions | fitness
partner 1.25 µg/mL | ≥ 1
partner 2.5 µg/mL | 0.944
partner 5 µg/mL | ≥ 1

CN(C)C(=O)C(CCN1CCC(O)(c2ccc(Cl)cc2)CC1)(c1ccccc1)c1ccccc1 [Loperamide] + Cc1onc(-c2ccccc2)c1C(=O)N[C@@H]1C(=O)N2[C@@H]1SC(C)(C)[C@@H]2C(=O)O [Oxacillin]
Conditions | Bliss interaction score
B. subtilis 168 [3] | -0.0924
S. aureus DSM 20231 [1] | -0.0615
S. aureus Newman | 0.077
S. pneumoniae D39V [2] | -0.33

Conditions | fitness
B. subtilis 168 [5], first compound 25 µg/mL, partner 0.002 µg/mL | 0.749
B. subtilis 168 [5], first compound 25 µg/mL, partner 0.004 µg/mL | 0.697
B. subtilis 168 [5], first compound 50 µg/mL, partner 0.002 µg/mL | 0.0423
B. subtilis 168 [5], first compound 50 µg/mL, partner 0.004 µg/mL | 0.0371
B. subtilis 168 [5], first compound 50 µg/mL, partner 0.008 µg/mL | 0.0519
B. subtilis 168 [5], first compound 100 µg/mL, partner 0.002 µg/mL | 0.0346
B. subtilis 168 [5], first compound 100 µg/mL, partner 0.004 µg/mL | 0.0357
B. subtilis 168 [5], first compound 100 µg/mL, partner 0.008 µg/mL | 0.0283
S. pneumoniae D39V [4], first compound 17.14 µg/mL, partner 0.01 µg/mL | 0.976
S. pneumoniae D39V [4], first compound 17.14 µg/mL, partner 0.02 µg/mL | 0.878
S. pneumoniae D39V [4], first compound 20 µg/mL, partner 0.01 µg/mL | 0.99
S. pneumoniae D39V [4], first compound 20 µg/mL, partner 0.02 µg/mL | 0.869
S. pneumoniae D39V [4], first compound 20 µg/mL, partner 0.04 µg/mL | 0.156
S. pneumoniae D39V [4], first compound 34.28 µg/mL, partner 0.01 µg/mL | 0.908
S. pneumoniae D39V [4], first compound 40 µg/mL, partner 0.01 µg/mL | 0.859
S. pneumoniae D39V [4], first compound 40 µg/mL, partner 0.04 µg/mL | 0.109
S. pneumoniae D39V [4], first compound 80 µg/mL, partner 0.04 µg/mL | 0.0757

fitness, one replicate
Conditions | partner 0.01 µg/mL | partner 0.02 µg/mL | partner 0.04 µg/mL | partner 0.075 µg/mL | partner 0.15 µg/mL | partner 0.3 µg/mL
B. subtilis 168 [5], first compound 25 µg/mL | – | – | – | 0.0507 | 0.0511 | 0.0488
B. subtilis 168 [5], first compound 50 µg/mL | – | – | – | 0.0519 | 0.0509 | 0.0494
B. subtilis 168 [5], first compound 100 µg/mL | – | – | – | 0.0598 | 0.0504 | 0.0472
S. pneumoniae D39V [4], first compound 68.57 µg/mL | 0.979 | 0.901 | 0.618 | – | – | –

CCN(CC)CCOC(=O)c1ccc(N)cc1 [Procaine] + COc1cc(Cc2cnc(N)nc2N)cc(OC)c1OC [Trimethoprim]
Conditions | Bliss interaction score
B. subtilis 168 [3] | 0.0837
S. aureus DSM 20231 [1] | -0.0543
S. aureus Newman | 0.0842
S. pneumoniae D39V [2] | 0.0954

fitness
Conditions | first compound 85.5 µg/mL | first compound 171 µg/mL | first compound 342 µg/mL
B. subtilis 168 [5], partner 0.25 µg/mL | 0.704 | 0.688 | 0.69
B. subtilis 168 [5], partner 0.5 µg/mL | 0.531 | 0.562 | 0.498
S. aureus DSM 20231 [6], partner 0.125 µg/mL | 0.669 | 0.744 | 0.709
S. aureus DSM 20231 [6], partner 0.25 µg/mL | 0.565 | 0.607 | 0.613
S. aureus DSM 20231 [6], partner 0.5 µg/mL | 0.118 | 0.123 | 0.144
S. aureus DSM 20231 [6], partner 1 µg/mL | 0.0274 | 0.0353 | 0.021

fitness, B. subtilis 168 [5], one replicate
Conditions | partner 0.1 µg/mL | partner 0.125 µg/mL | partner 0.2 µg/mL | partner 0.4 µg/mL | partner 1 µg/mL | partner 2 µg/mL
first compound 85.5 µg/mL | 0.877 | 0.771 | 0.722 | 0.555 | 0.393 | 0.277
first compound 171 µg/mL | 0.836 | 0.775 | 0.783 | 0.544 | 0.444 | 0.295
first compound 342 µg/mL | 0.83 | 0.742 | 0.832 | 0.555 | 0.37 | 0.383
